Values after ≈ are worked out from the molar mass of the structure shown.
How the values were obtained:
[1] = biological target: Type-1 angiotensin II receptor (Homo sapiens) (UniProt P30556); experiment: Inhibition of Angiotensin-2 receptor (unknown origin)
[2] = biological target: T1, Tyrosine-protein phosphatase non-receptor type 1 (Homo sapiens, UniProt P18031); experiment: Inhibition of PTP1B (unknown origin)
T1 sequence (P18031 whole entry): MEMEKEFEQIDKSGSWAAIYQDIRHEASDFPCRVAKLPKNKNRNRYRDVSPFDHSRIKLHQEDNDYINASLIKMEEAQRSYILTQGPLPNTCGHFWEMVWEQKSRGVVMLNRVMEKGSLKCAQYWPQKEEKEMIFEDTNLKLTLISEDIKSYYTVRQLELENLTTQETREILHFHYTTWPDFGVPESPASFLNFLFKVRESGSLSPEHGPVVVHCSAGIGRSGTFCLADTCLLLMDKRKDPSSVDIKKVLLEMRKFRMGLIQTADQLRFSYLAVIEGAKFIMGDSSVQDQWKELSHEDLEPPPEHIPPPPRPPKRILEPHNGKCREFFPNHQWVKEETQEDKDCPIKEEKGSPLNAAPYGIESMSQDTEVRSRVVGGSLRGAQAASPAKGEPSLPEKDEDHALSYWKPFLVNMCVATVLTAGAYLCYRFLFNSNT

DU-145 = experiment: Antiproliferative activity against human DU-145 cells assessed as inhibition of cell growth measured after 24 hrs by MTT assay; format: functional, cell-based; conditions: DU-145, 24 h
PC-3 [3] = experiment: Antiproliferative activity against human PC-3 cells assessed as inhibition of cell growth measured after 24 hrs by MTT assay; format: functional, cell-based; conditions: PC-3, 24 h
[4] = Antiproliferative activity against human RWPE-1 cells assessed as inhibition of cell growth measured after 24 hrs by MTT assay; format: toxicity, cell-based
Escherichia coli [5] = experiment: Antibacterial activity against Escherichia coli ATCC 25922 assessed as reduction in microbial growth by incubated for 18 hrs CLSI based broth microdilution method; format: functional
[6] = system: Staphylococcus epidermidis; experiment: Antibacterial activity against Staphylococcus epidermidis ATCC 12228 assessed as reduction in microbial growth by incubated for 18 hrs CLSI based broth microdilution method; format: functional
Escherichia coli [7] = experiment: Antimicrobial activity against Escherichia coli NCTC 8196 assessed as reduction in microbial growth measured fro 18 hrs by two-fold serial dilution method; format: functional
HUVEC = experiment: Antiproliferative activity against HUVEC cells assessed as inhibition of cell proliferation incubated for 72 hrs by Cell Titer Luminescence assay; format: functional, cell-based; conditions: Homo sapiens
MCF7 [8] = experiment: Cytotoxicity against human MCF7 cells assessed as reduction in cell viability incubated for 24 hrs by MTT assay; format: functional, cell-based; conditions: MCF7, 24 h
HepG2 = experiment: Cytotoxicity against human HepG2 cells assessed as reduction in cell viability incubated for 24 hrs by MTT assay; format: functional, cell-based; conditions: HepG2, 24 h
PC-3 [9] = experiment: Cytotoxicity against human PC-3 cells assessed as reduction in cell growth incubated for 24 hrs by MTT assay; format: functional, cell-based; conditions: PC-3, 24 h
CCRF-CEM = experiment: Cytotoxicity against human CCRF-CEM cells assessed as reduction in cell growth at 25 uM incubated for 48 hrs by MTT assay relative to control; format: functional; design: scale not given: the % may be the effect or the level left
MCF7 [10] = experiment: Cytotoxicity against human MCF7 cells assessed as reduction in cell growth at 25 uM incubated for 48 hrs by MTT assay relative to control; format: functional; design: scale not given: the % may be the effect or the level left
[11] = Antioxidant activity assessed as DPPH radical scavenging activity after 30 mins by spectrophotometric analysis; format: functional
Escherichia coli [12] = experiment: Antibacterial activity against Escherichia coli ATCC 25922 assessed as bacterial growth inhibition incubated for 24 hrs by broth dilution method; format: functional
Pseudomonas aeruginosa [13] = experiment: Antimicrobial activity against Pseudomonas aeruginosa ATCC 27853 assessed as inhibition of microbial growth incubated for 24 hrs by broth microdilution method; format: functional
Staphylococcus aureus [14] = experiment: Antibacterial activity against Staphylococcus aureus ATCC 29213 assessed as bacterial growth inhibition incubated for 24 hrs by broth dilution method; format: functional
[15] = system: Staphylococcus epidermidis; experiment: Antibacterial activity against Staphylococcus epidermidis ATCC 12228 assessed as bacterial growth inhibition incubated for 24 hrs by broth dilution method; format: functional
Pseudomonas aeruginosa [16] = experiment: Antibacterial activity against Pseudomonas aeruginosa assessed as bacterial growth inhibition after 24 hrs by broth macro dilution method; format: functional
Escherichia coli [17] = experiment: Antibacterial activity against Escherichia coli assessed as bacterial growth inhibition after 24 hrs by broth macro dilution method; format: functional
Staphylococcus aureus [18] = experiment: Antibacterial activity against Staphylococcus aureus MTCC-96 assessed as bacterial growth inhibition after 24 hrs by broth macro dilution method; format: functional
Staphylococcus aureus [19] = experiment: Antibacterial activity against Staphylococcus aureus MTCC-739 assessed as bacterial growth inhibition after 24 hrs by broth macro dilution method; format: functional
Micrococcus luteus = experiment: Antibacterial activity against Micrococcus luteus assessed as bacterial growth inhibition after 24 hrs by broth macro dilution method; format: functional
Pichia kudriavzevii = experiment: Antifungal activity against Candida krusei ATCC 6258 assessed as inhibition of fungal growth incubated for 24 hrs by microtiter plate reader assay; format: functional
Cholinesterase = Cholinesterase (Homo sapiens, UniProt P06276); experiment: Inhibition of BChE (unknown origin) using acetylthiocholine iodide as substrate preincubated for 20 mins followed by substrate addition and measured after 5 mins by Ellman's method
Nannizzia gypsea = experiment: Antifungal activity against Microsporum gypseum assessed as reduction in fungal growth; format: functional
Staphylococcus aureus [20] = experiment: Antibacterial activity against Staphylococcus aureus assessed as reduction in microbial growth by CLSI based broth microdilution method; format: functional
Aspergillus flavus = experiment: Antifungal activity against Aspergillus flavus assessed as inhibition of fungal growth; format: functional
[21] = Antagonist activity at NMDA receptor (unknown origin); design: species or system Homo sapiens

Sequence of Type-1 angiotensin II receptor (Homo sapiens) (P30556 whole entry, looked up): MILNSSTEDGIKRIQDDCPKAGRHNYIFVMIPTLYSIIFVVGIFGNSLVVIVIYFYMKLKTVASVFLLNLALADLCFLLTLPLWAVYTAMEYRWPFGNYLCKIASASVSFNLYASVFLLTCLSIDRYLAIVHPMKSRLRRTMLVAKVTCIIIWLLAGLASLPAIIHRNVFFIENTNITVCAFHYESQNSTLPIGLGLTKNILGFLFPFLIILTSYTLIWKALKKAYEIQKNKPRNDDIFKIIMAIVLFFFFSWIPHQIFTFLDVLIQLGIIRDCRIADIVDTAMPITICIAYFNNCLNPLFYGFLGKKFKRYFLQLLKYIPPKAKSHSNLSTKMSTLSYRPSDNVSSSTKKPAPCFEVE
Sequence of Cholinesterase (P06276 whole entry): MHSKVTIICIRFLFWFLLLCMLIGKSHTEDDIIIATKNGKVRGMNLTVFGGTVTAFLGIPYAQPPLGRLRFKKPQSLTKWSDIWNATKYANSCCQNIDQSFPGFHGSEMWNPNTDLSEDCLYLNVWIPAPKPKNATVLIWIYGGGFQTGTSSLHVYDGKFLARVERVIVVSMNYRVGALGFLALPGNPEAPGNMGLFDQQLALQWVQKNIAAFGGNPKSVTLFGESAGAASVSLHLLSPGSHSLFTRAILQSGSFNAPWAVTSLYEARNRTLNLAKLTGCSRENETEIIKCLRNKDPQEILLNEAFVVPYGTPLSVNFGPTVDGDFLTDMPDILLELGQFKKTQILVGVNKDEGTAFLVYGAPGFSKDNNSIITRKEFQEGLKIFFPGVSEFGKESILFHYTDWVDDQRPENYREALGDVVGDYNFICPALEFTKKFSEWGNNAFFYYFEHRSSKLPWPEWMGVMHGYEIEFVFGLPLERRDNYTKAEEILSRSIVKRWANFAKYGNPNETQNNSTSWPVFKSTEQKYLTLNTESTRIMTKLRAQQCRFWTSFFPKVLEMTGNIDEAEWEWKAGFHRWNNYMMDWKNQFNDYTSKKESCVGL

O=P(O)(O)CN[C@@H](Cc1ccc(-c2ccccc2)cc1)c1nnn[nH]1
IC50 [1]: 0.0009 µM

OC1C2CC3CC1CC(C2)C3(Cc1nnn[nH]1)c1ccc(-c2ccc(F)cc2)cc1 (stereo not drawn)
IC50 [2]: 0.0037 µM

O=C1N(Cc2ccc(Br)cc2)c2ccccc2C1(O)Cc1nnn[nH]1 (stereo not drawn)
IC50 (DU-145): 11.7 µM | IC50 (PC-3 [3]): 10.1 µM | IC50 at 24 h [4]: 76 µM

Cc1ccc(-n2nnnc2NCc2ccco2)cc1Cl
MIC (Escherichia coli [5]): 2 µg/mL | MIC [6]: 2 µg/mL | MIC (Escherichia coli [7]): 2 µg/mL

Fc1ccc(-n2nnnc2NCc2ccco2)cc1Cl
MIC (Escherichia coli [5]): 2 µg/mL | MIC [6]: 2 µg/mL | MIC (Escherichia coli [7]): 2 µg/mL

CCC(C)n1ncn(-c2ccc(N3CCN(c4ccc(OC[C@@H]5CO[C@@](Cn6ncnn6)(c6ccc(Cl)cc6Cl)O5)cc4)CC3)cc2)c1=O (stereo partly drawn)
IC50 (HUVEC): 0.073 µM

Clc1ccc(-c2nnn(-c3[se]nnc3-c3ccc(Cl)cc3)n2)cc1
IC50 (MCF7 [8]): 43.2 µM | IC50 (HepG2): 43.2 µM

Clc1ccc(-c2nn[se]c2-n2nnc(-c3ccccc3)n2)cc1
IC50 (MCF7 [8]): 43.2 µM | IC50 (HepG2): 43.2 µM

Clc1ccc(-c2nn[se]c2-n2nnc(-c3ccccc3Cl)n2)cc1
IC50 (MCF7 [8]): 43.2 µM | IC50 (HepG2): 43.2 µM

O=C(O)Cn1nnc(-c2cn(-c3ccccc3)nc2-c2ccc(Cl)cc2)n1
IC50 (PC-3 [9]): 6.43 µM

Clc1ccccc1-c1nnnn1CCCn1cnc2c(Br)c(Br)c(Br)c(Br)c21
Activity (CCRF-CEM): <1% | Activity (MCF7 [10]): <1%

Brc1c(Br)c(Br)c2c(ncn2CCCn2nnnc2-c2ccccc2)c1Br
Activity (CCRF-CEM): <1% | Activity (MCF7 [10]): <1%

O=S(=O)(c1ccccc1)n1nnc(CCSc2cc3ccccc3[nH]2)n1
IC50 [11]: 27.63 µg/mL (≈ 71.7 µM)

CC1=C(C)C2(C)CC1(C)C1C(=O)N(Nc3nnnn3-c3ccccc3Cl)C(=O)C12 (stereo not drawn)
MIC (Escherichia coli [12]): 0.4 µg/mL (≈ 0.969 µM) | MIC (Pseudomonas aeruginosa [13]): 0.4 µg/mL | MIC (Staphylococcus aureus [14]): 0.4 µg/mL (≈ 0.969 µM) | MIC [15]: 0.4 µg/mL (≈ 0.969 µM)

Cn1ncc2cc(-n3cc(CSc4nnnn4-c4ccc(F)cc4F)nn3)ccc21
MIC (Pseudomonas aeruginosa [16]): 5 µg/mL (≈ 11.8 µM) | MIC (Escherichia coli [17]): 5 µg/mL (≈ 11.8 µM) | MIC (Staphylococcus aureus [18]): 5 µg/mL (≈ 11.8 µM) | MIC (Staphylococcus aureus [19]): 5 µg/mL (≈ 11.8 µM) | MIC (Micrococcus luteus): 5 µg/mL (≈ 11.8 µM)

Cc1cn(C2OC(CO)CC2n2nnnc2Cc2c[nH]c3ccccc23)c(=O)[nH]c1=O (stereo not drawn)
IC50 [11]: 25.87 µg/mL (≈ 61.1 µM)

CC1=C(C)C2(C)CC1(C)C1C(=O)N(Nc3nnnn3-c3cccc(C(F)(F)F)c3)C(=O)C12 (stereo not drawn)
MIC (Escherichia coli [12]): 0.4 µg/mL (≈ 0.896 µM) | MIC (Pseudomonas aeruginosa [13]): 0.4 µg/mL | MIC (Staphylococcus aureus [14]): 0.4 µg/mL (≈ 0.896 µM) | MIC [15]: 0.4 µg/mL (≈ 0.896 µM)

Cc1cn(C2OC(CO)CC2n2nnnc2-c2cccnc2Cl)c(=O)[nH]c1=O (stereo not drawn)
IC50 [11]: 25.87 µg/mL (≈ 63.8 µM)

Clc1ncccc1-c1nnn[nH]1
IC50 [11]: 27.63 µg/mL (≈ 152 µM)

Cn1ncc2cc(-n3cc(CSc4nnnn4-c4cccc(O)c4)nn3)ccc21
MIC (Pseudomonas aeruginosa [16]): 5 µg/mL (≈ 12.3 µM) | MIC (Escherichia coli [17]): 5 µg/mL (≈ 12.3 µM) | MIC (Staphylococcus aureus [18]): 5 µg/mL (≈ 12.3 µM) | MIC (Staphylococcus aureus [19]): 5 µg/mL (≈ 12.3 µM) | MIC (Micrococcus luteus): 5 µg/mL (≈ 12.3 µM)

Fc1ccccc1-n1nnnc1NCc1ccco1
MIC (Escherichia coli [5]): 2 µg/mL | MIC [6]: 2 µg/mL | MIC (Escherichia coli [7]): 2 µg/mL

COc1ccc(-c2nnc(C[Se]c3nnn[nH]3)o2)cc1
IC50 [11]: 27.63 µg/mL (≈ 81.9 µM)

Cn1ncc2cc(-n3cc(CSc4nnnn4-c4cccc(F)c4)nn3)ccc21
MIC (Pseudomonas aeruginosa [16]): 5 µg/mL (≈ 12.3 µM) | MIC (Escherichia coli [17]): 5 µg/mL (≈ 12.3 µM) | MIC (Staphylococcus aureus [18]): 5 µg/mL (≈ 12.3 µM) | MIC (Staphylococcus aureus [19]): 5 µg/mL (≈ 12.3 µM) | MIC (Micrococcus luteus): 5 µg/mL (≈ 12.3 µM)

Cn1nnnc1SCC(=O)N1CCN(C2CCCCC2)CC1
MIC (Pichia kudriavzevii): 3.9 µg/mL (≈ 12 µM)

COc1ccccc1C1=C(C#N)/C(=C(/C)c2nnn[nH]2)NC(C)(c2ccccc2OC)C1 (stereo not drawn)
IC50 (Cholinesterase): 0.29 µM

O=P(O)(O)CN[C@@H](Cc1ccc2oc3ccccc3c2c1)c1nnn[nH]1
IC50 [1]: 0.006 µM

Cn1ncc2cc(-n3cc(CSc4nnnn4-c4cccc([N+](=O)[O-])c4)nn3)ccc21
MIC (Nannizzia gypsea): 11 µg/mL (≈ 25.3 µM) | MIC (Pseudomonas aeruginosa [16]): 5 µg/mL (≈ 11.5 µM) | MIC (Escherichia coli [17]): 5 µg/mL (≈ 11.5 µM) | MIC (Staphylococcus aureus [18]): 5 µg/mL (≈ 11.5 µM) | MIC (Staphylococcus aureus [19]): 5 µg/mL (≈ 11.5 µM) | MIC (Micrococcus luteus): 5 µg/mL (≈ 11.5 µM)

CC1=C(C)C2(C)CC1(C)C1C(=O)N(Nc3nnnn3-c3ccccc3Br)C(=O)C12 (stereo not drawn)
MIC (Escherichia coli [12]): 0.4 µg/mL (≈ 0.875 µM) | MIC (Pseudomonas aeruginosa [13]): 0.4 µg/mL | MIC (Staphylococcus aureus [14]): 0.4 µg/mL (≈ 0.875 µM) | MIC [15]: 0.4 µg/mL (≈ 0.875 µM) | MIC (Staphylococcus aureus [20]): 0.1 µg/mL

COc1ccc(-n2nnnc2SCc2cn(-c3ccc4c(cnn4C)c3)nn2)cc1
MIC (Aspergillus flavus): 10 µg/mL (≈ 23.8 µM)

C1=C(c2nnn(Cc3cn(Cc4ccccc4)nn3)n2)COc2ccccc21
IC50 [11]: 27.63 µg/mL (≈ 74.4 µM)

O=C(O)[C@H]1C[C@@H](Cc2nnn[nH]2)CCN1 (single isomer, unassigned)
IC50 [21]: 0.1 µM

COc1cccc2c1C(=O)c1c(O)c3c(c(O)c1C2=O)C[C@@](O)(C(=O)CO)C[C@@H]3O[C@H]1C[C@H](N)[C@H](O)[C@H](C)O1 [DOXORUBICIN]
IC50 (PC-3 [9]): 2.24 µM

OC(Cn1cncn1)(Cn1cncn1)c1ccc(F)cc1F [FLUCONAZOLE]
MIC (Pichia kudriavzevii): 7.8 µg/mL (≈ 25.5 µM)

CO/N=C1\CN(c2nc3c(cc2F)c(=O)c(C(=O)O)cn3C2CC2)CC1CN (stereo not drawn) [GEMIFLOXACIN]
MIC (Pseudomonas aeruginosa [16]): 10 µg/mL (≈ 25.7 µM) | MIC (Escherichia coli [17]): 10 µg/mL (≈ 25.7 µM)

CCC(C)n1ncn(-c2ccc(N3CCN(c4ccc(OCC5COC(Cn6cncn6)(c6ccc(Cl)cc6Cl)O5)cc4)CC3)cc2)c1=O (stereo not drawn) [ITRACONAZOLE]
MIC (Nannizzia gypsea): 10 µg/mL (≈ 14.2 µM) | MIC (Aspergillus flavus): 8 µg/mL (≈ 11.3 µM)

C[C@@H](c1ncncc1F)[C@](O)(Cn1cncn1)c1ccc(F)cc1F [VORICONAZOLE]
MIC (Pichia kudriavzevii): 3.9 µg/mL (≈ 11.2 µM)

From ChEMBL document CHEMBL6127075, “Tetrazoles: A multi-potent motif in drug design” (Eur J Med Chem, 2024)
